Laboratory results from US20230339886A1 (University of Florida Research Foundation, Incorporated, priority 2020, published 2023).

Biological target: T1, REV-ERBα LBD (human; residues 281-614 Δ324-422) (Homo sapiens, UniProt P20393, DEL324-422)
T1 construct: 6×Histag-REV-ERBα LBD (human; residues 281-614 Δ324-422); made in house; host or cells: Escherichia coli
Assay: TR-FRET corepressor interaction assay (REV-ERBα LBD, FITC-SMRT peptide)
Type: biochemical
Conditions: Table 2, read-out: REVERBα agonism (EC50 class, FRET assay)
Procedure, shortened: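 Compound serial dilutions (in DMSO, triplicate) incubated 2 h at 4 °C; Tb donor excited at 340 nm, emission read at 495 nm and FITC acceptor at 520 nm. TR-FRET ratio (520/495 nm) plotted against ligand concentration and fitted to a sigmoidal dose-response curve.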

T1 sequence (P20393 with tags, fused parts or gaps DEL324-422): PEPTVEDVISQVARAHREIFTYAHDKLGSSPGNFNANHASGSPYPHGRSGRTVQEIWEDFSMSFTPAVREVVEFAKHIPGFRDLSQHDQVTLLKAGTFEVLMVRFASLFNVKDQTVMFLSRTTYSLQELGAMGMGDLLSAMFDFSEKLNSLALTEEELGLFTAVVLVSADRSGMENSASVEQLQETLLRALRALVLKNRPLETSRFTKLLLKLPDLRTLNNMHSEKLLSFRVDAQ
T1 sequence (Q9Y618 2335-2356 partner limits assumed): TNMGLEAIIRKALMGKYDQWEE

Compound	EC50 [nM]
Cc1cn[nH]c1-c1cc2c(cc1F)c([C@H](NS(=O)(=O)C1CC1)C(F)(F)F)cn2CC(C)(C)C [Example 381, N-[(1S)-1-[1-(2,2-dimethylpropyl)-5-fluoro-6-(4-methyl-1H-pyrazol-5-yl)indol-3-yl]-2,2,2-trifluoro-ethyl]cyclopropanesulfonamide]	500 to 3000
CC(C)(C)Cn1cc([C@H](NS(=O)(=O)C2CC2)C(F)(F)F)c2ccc(-c3ncccn3)cc21 [Example 382, (S)—N-(2,2,2-trifluoro-1-(1-neopentyl-6-(pyrimidin-2-yl)-1H-indol-3-yl)ethyl)cyclopropanesulfonamide]	500 to 3000
CC(C)(C)Cn1cc([C@H](NS(=O)(=O)C2CC2)C(F)(F)F)c2ccc(-c3cccnc3)cc21 [Example 383, (S)—N-(2,2,2-trifluoro-1-(1-neopentyl-6-(pyridin-3-yl)-1H-indol-3-yl)ethyl)cyclopropanesulfonamide]	500 to 3000
CC(C)(C)Cn1cc([C@H](NS(=O)(=O)C2CC2)C(F)(F)F)c2ccc(-c3ccncc3C#N)cc21 [Example 384, (S)—N-(1-(6-(3-cyanopyridin-4-yl)-1-neopentyl-1H-indol-3-yl)-2,2,2-trifluoroethyl)cyclopropanesulfonamide]	< 500
Cc1nc2ccccn2c1-c1ccc2c([C@H](NS(=O)(=O)C3CC3)C(F)(F)F)cn(CC(C)(C)C)c2c1 [Example 385, (S)—N-(2,2,2-trifluoro-1-(6-(2-methylimidazo[1,2-a]pyridin-3-yl)-1-neopentyl-1H-indol-3-yl)ethyl)cyclopropanesulfonamide]	500 to 3000
CC(C)(C)Cn1cc([C@H](NS(=O)(=O)C2CC2)C(F)(F)F)c2ccc(-c3ccc(F)c(C#N)c3)cc21 [Example 387, (S)—N-(1-(6-(3-cyano-4-fluorophenyl)-1-neopentyl-1H-indol-3-yl)-2,2,2-trifluoroethyl)cyclopropanesulfonamide]	500 to 3000
CC(C)(C)Cn1cc([C@H](NS(=O)(=O)C2CC2)C(F)(F)F)c2ccc(-c3c(C#N)cccc3C(F)(F)F)cc21 [Example 389, (S)—N-(1-(6-(2-cyano-6-(trifluoromethyl)phenyl)-1-neopentyl-1H-indol-3-yl)-2,2,2-trifluoroethyl)cyclopropanesulfonamide]	< 500
Cc1cccc(C#N)c1-c1ccc2c([C@H](NS(=O)(=O)C3CC3)C(F)(F)F)cn(CC(C)(C)C)c2c1 [Example 390, (S)—N-(1-(6-(2-cyano-6-methylphenyl)-1-neopentyl-1H-indol-3-yl)-2,2,2-trifluoroethyl)cyclopropanesulfonamide]	< 500
COC(C)(C)Cn1cc([C@H](NS(=O)(=O)C2CCC2)C(F)(F)F)c2cc(F)c(-c3ccccc3C(F)(F)F)cc21 [Example 391, N-[(1S)-2,2,2-trifluoro-1-[5-fluoro-1-(2-methoxy-2-methyl-propyl)-6-[2-(trifluoromethyl)phenyl]indol-3-yl]ethyl]cyclobutanesulfonamide]	< 500
N#CC1(Cn2cc([C@H](NS(=O)(=O)C3CCC3)C(F)(F)F)c3cc(F)c(-c4ccccc4C(F)(F)F)cc32)CC1 [Example 392, [(1S)-1-[1-[(1-cyanocyclopropyl)methyl]-5-fluoro-6-[2-(trifluoromethyl)phenyl]indol-3-yl]-2,2,2-trifluoro-ethyl]cyclobutanesulfonamide]	< 500
CC(CO)(CCl)Cn1cc([C@H](NS(=O)(=O)C2CC2)C(F)(F)F)c2cc(F)c(-c3ccccc3C(F)(F)F)cc21 (stereo partly drawn) [Example 404, N-[(1S)-1-[1-[2-(chloromethyl)-3-hydroxy-2-methyl-propyl]-5-fluoro-6-[2-(trifluoromethyl)phenyl]indol-3-yl]-2,2,2-trifluoro-ethyl]cyclopropanesulfonamide]	500 to 3000
CC(C)Cn1cc(C(CS(C)(=O)=O)C(F)(F)F)c2ccc(-c3ccccc3C(F)(F)F)cc21 (stereo not shown) [Example 407, 1-isobutyl-3-(1,1,1-trifluoro-3-(methylsulfonyl)propan-2-yl)-6-(2-(trifluoromethyl)phenyl)-1H-indole]	> 3000
CC(C)Cn1cc([C@H](NS(=O)(=O)C2CC2)C(F)(F)F)c2ccc(-c3ccccc3C(F)(F)F)cc21 [Example 410, (S)—N-(2,2,2-trifluoro-1-(1-isobutyl-6-(2-(trifluoromethyl)phenyl)-1H-indol-3-yl)ethyl)cyclopropanesulfonamide]	< 500
COC(C)(C)Cn1cc([C@H](NS(=O)(=O)C2CCC2)C(F)(F)F)c2ccc(-c3ccccc3C(F)(F)F)nc21 [Example 413, (S)—N-(2,2,2-trifluoro-1-(1-(2-methoxy-2-methylpropyl)-6-(2-(trifluoromethyl)phenyl)-1H-pyrrolo[2,3-b]pyridin-3-yl)ethyl)cyclobutanesulfonamide]	< 500
N#CC1(Cn2cc([C@H](NS(=O)(=O)C3CCC3)C(F)(F)F)c3ccc(-c4ccccc4C(F)(F)F)nc32)CC1 [Example 414, (S)—N-(1-(1-((1-cyanocyclopropyl)methyl)-6-(2-(trifluoromethyl)phenyl)-1H-pyrrolo[2,3-b]pyridin-3-yl)-2,2,2-trifluoroethyl)cyclobutanesulfonamide]	< 500
CC(C)c1ccc2c([C@H](NS(=O)(=O)C3CCC3)C(F)(F)F)cn(CC(C)(C)C)c2c1 [Example 415, (S)—N-(2,2,2-trifluoro-1-(6-isopropyl-1-neopentyl-1H-indol-3-yl)ethyl)cyclobutanesulfonamide]	500 to 3000

Second part, the compound after the results:

EC50 [nM]	Compound
500 to 3000	CC(C)(C)Cn1cc([C@H](NS(=O)(=O)C2CC2)C(F)(F)F)c2ccc(-c3cccc(F)c3C#N)cc21 [Example 386, (S)—N-(1-(6-(2-cyano-3-fluorophenyl)-1-neopentyl-1H-indol-3-yl)-2,2,2-trifluoroethyl)cyclopropanesulfonamide]
< 500	Cc1cccc(Cl)c1-c1ccc2c([C@H](NS(=O)(=O)C3CC3)C(F)(F)F)cn(CC(C)(C)C)c2c1 [Example 388, (S)—N-(1-(6-(2-chloro-6-methylphenyl)-1-neopentyl-1H-indol-3-yl)-2,2,2-trifluoroethyl)cyclopropanesulfonamide]
500 to 3000	CC(C)(C)Cn1cc(CCNS(=O)(=O)C2CC2)c2ccc(-c3cccc(F)c3C(F)(F)F)cc21 [Example 393, N-(2-(6-(3-fluoro-2-(trifluoromethyl)phenyl)-1-neopentyl-1H-indol-3-yl)ethyl)cyclopropanesulfonamide]
< 500	CC(C)(C)Cn1cc(CCNS(=O)(=O)C2CC2)c2ccc(-c3ccc(Cl)cc3C(F)(F)F)cc21 [Example 394, N-(2-(6-(4-chloro-2-(trifluoromethyl)phenyl)-1-neopentyl-1H-indol-3-yl)ethyl)cyclopropanesulfonamide]
< 500	CC(C)(C)Cn1cc(CCNS(=O)(=O)C2CC2)c2ccc(-c3ccc(F)cc3C(F)(F)F)cc21 [Example 395, N-(2-(6-(4-fluoro-2-(trifluoromethyl)phenyl)-1-neopentyl-1H-indol-3-yl)ethyl)cyclopropanesulfonamide]
< 500	CC(C)(C)Cn1cc(CCNS(=O)(=O)C2CC2)c2ccc(-c3ccc(C(F)(F)F)cc3Cl)cc21 [Example 396, N-(2-(6-(2-chloro-4-(trifluoromethyl)phenyl)-1-neopentyl-1H-indol-3-yl)ethyl)cyclopropanesulfonamide]
< 500	CC(C)(C)Cn1cc(CCNS(=O)(=O)C2CC2)c2ccc(-c3ccc(Cl)cc3Cl)cc21 [Example 397, N-(2-(6-(2,4-dichlorophenyl)-1-neopentyl-1H-indol-3-yl)ethyl)cyclopropanesulfonamide]
< 500	Cc1ccc(-c2ccc3c(CCNS(=O)(=O)C4CC4)cn(CC(C)(C)C)c3c2)c(C(F)(F)F)c1 [Example 398, N-(2-(6-(4-methyl-2-(trifluoromethyl)phenyl)-1-neopentyl-1H-indol-3-yl)ethyl)cyclopropanesulfonamide]
> 3000	CC(C)(C)Cn1cc(CCNS(=O)(=O)C2CC2)c2ccc(-c3cccc(C(F)(F)F)c3C#N)cc21 [Example 399, N-(2-(6-(2-cyano-3-(trifluoromethyl)phenyl)-1-neopentyl-1H-indol-3-yl)ethyl)cyclopropanesulfonamide]
< 500	CC(C)(C)Cn1cc(CCNS(=O)(=O)C2CC2)c2ccc(-c3ccc(C(F)(F)F)cc3C#N)cc21 [Example 400, N-(2-(6-(2-cyano-4-(trifluoromethyl)phenyl)-1-neopentyl-1H-indol-3-yl)ethyl)cyclopropanesulfonamide]
< 500	CC(C)(C)Cc1cn(CCNS(=O)(=O)C2CC2)c2ccc(-c3ccc(Cl)cc3C#N)cc12 [Example 401, N-(2-(5-(4-chloro-2-cyanophenyl)-3-neopentyl-1H-indol-1-yl)ethyl)cyclopropanesulfonamide]
< 500	Cc1ccc(-c2ccc3c(c2)c(CC(C)(C)C)cn3CCNS(=O)(=O)C2CC2)c(C(F)(F)F)c1 [Example 402, N-(2-(5-(4-methyl-2-(trifluoromethyl)phenyl)-3-neopentyl-1H-indol-1-yl)ethyl)cyclopropanesulfonamide]
> 3000	CC(C)(C)Cn1cc(CC2(NS(=O)(=O)C3CC3)CC2)c2ccc(-c3ccccc3C(F)(F)F)cc21 [Example 406, N-(1-((1-neopentyl-6-(2-(trifluoromethyl)phenyl)-1H-indol-3-yl)methyl)cyclopropyl)cyclopropanesulfonamide]
< 500	Cc1ccc(-c2ccc3c(CCS(=O)(=O)C4CC4)cn(CC(C)(C)C)c3c2)c(C(F)(F)F)c1 [Example 408, 3-(2-(cyclopropylsulfonyl)ethyl)-6-(4-methyl-2-(trifluoromethyl)phenyl)-1-neopentyl-1H-indole]
< 500	CC(C)(C)Cn1cc([C@H](NS(=O)(=O)C2CCC2)C(F)(F)F)c2ccc(-c3c(F)cccc3Cl)cc21 [Example 411, (S)—N-(1-(6-(2-chloro-6-fluorophenyl)-1-neopentyl-1H-indol-3-yl)-2,2,2-trifluoroethyl)cyclobutanesulfonamide]
